How the values were obtained:
Assay type in all cases: cell-based, Human
[1] = tested on: Karpas 299 (NPM-ALK); experiment: In vitro growth inhibition of Karpas 299 tumor cells (MTT/CCK8); conditions: Homo sapiens, KARPAS-299; in vitro growth inhibition (or induction of apoptosis), cells cultured 3 to 5 days, MTT (CCK8); read-out: IC50 Karpas 299 (NPM-ALK)
Excerpt: (§1) Tumor cell lines are an effective model for studying in vitro tumor growth inhibition. In the present invention, a representative tumor cell line was selected to determine the cell growth inhibition activity of the present compound. All cell lines used were from ATCC, DSMZ, and cell banks of the Chinese Academy of Sciences. Cell culture conditions and methods were in accordance with the requirements of each cell line. Cells were subcultured in vitro for no more than 3 generations each time, and as required, single-clone purification and identification of cell lines could be carried out.
(§2) The cell culture media used were RPMI1640 (Gibco), DMEM (Gibco), MEM (Gibco), L15 (Gibco), IMDM (Gibco), McCOY'S5A, and William's (Gibco). 5-20% fetal bovine serum (Gibco), 1% double antibiotic, 2 mM glutamine, or 1 mM sodium pyruvate were added. The names, species, major gene characteristics, culture media and cell sources of the cell lines used are shown in table 1, wherein “amp” refers to gene amplification. “+++” refers to gene overexpression. The main genetic characteristics of cells were obtained from the COSMIC Cell Lines Project and related research papers, respectively.
(§3) Adherent cells were digested with 0.25% trypsin-EDTA (Gibco). Suspension culture cells were collected by centrifugation (1700 rpm, 3 minutes). The supernatant was discarded and the cells were counted. According to each cell growth cycle, different concentrations of cells were prepared (5˜10×10^4 cells per ml), and inoculated to 96-well plates (Corning), with 100 μl per well, and incubated overnight at 37° C., 5% CO2. The next day, the test compound was added to the cultured cells (2 wells in parallel). The final concentration of the solvent was less than 1/1,000. The cells were further cultured for 3 to 5 days and assayed by MTT.
(§4) The compound was stored at a concentration of 10 mM at −20° C. and diluted to 2- or 10-fold series prior to use. BGJ398 and AC220 were synthesized according to the methods of WO2006420A1 and US2007232604A1, respectively.
(§5) The adherent cells were taken out from the cell culture medium, and immediately added to a freshly prepared complete medium containing 10% CCK8 (5% FBS), 100 ul per hole. The suspended cells were directly added to a CCK8 reagent until reaching a final concentration of 10% and cultured for 1 to 4 hours.
(§6) T=optical density of drug-treated cell wells−optical density of blank control wells; T0=optical density of cell wells before drug treatment−optical density of blank control wells; C=optical density of solvent control wells−optical density of blank control wells. […] The experiments were repeated 1 to 3 times and a statistical analysis of data was conducted.

[2] = tested on: Hep3B2 (FGFR3/4+++); experiment: In vitro growth inhibition of Hep3B2 tumor cells (MTT/CCK8); conditions: Homo sapiens, Hep3B; in vitro growth inhibition (or induction of apoptosis), cells cultured 3 to 5 days, MTT (CCK8); read-out: IC50 Hep3B2 (FGFR3/4+++)
Excerpt: as §1, §2, §3, §4, §5, §6

[3] = tested on: H1581 (FGFR1 amp); experiment: In vitro growth inhibition of H1581 tumor cells (MTT/CCK8); conditions: Homo sapiens, NCI-H1581; in vitro growth inhibition (or induction of apoptosis), cells cultured 3 to 5 days, MTT (CCK8); read-out: IC50 H1581 (FGFR1 amp)
Excerpt: as §1, §2, §3, §4, §5, §6

[4] = tested on: H1703 (PDGFRa amp); experiment: In vitro growth inhibition of H1703 tumor cells (MTT/CCK8); conditions: Homo sapiens, NCI-H1703; in vitro growth inhibition (or induction of apoptosis), cells cultured 3 to 5 days, MTT (CCK8); read-out: IC50 H1703 (PDGFRa amp)
Excerpt: as §1, §2, §3, §4, §5, §6

[5] = tested on: KATO III (FGFR2 amp); experiment: In vitro growth inhibition of KATO III tumor cells (MTT/CCK8); conditions: Homo sapiens, KATO III; in vitro growth inhibition (or induction of apoptosis), cells cultured 3 to 5 days, MTT (CCK8); read-out: IC50 KATO III (FGFR2 amp)
Excerpt: as §1, §2, §3, §4, §5, §6

[6] = tested on: MOLM-13 (FLT3-ITD); experiment: In vitro growth inhibition of MOLM-13 tumor cells (MTT/CCK8); conditions: Homo sapiens, MOLM-13; in vitro growth inhibition (or induction of apoptosis), cells cultured 3 to 5 days, MTT (CCK8); read-out: IC50 MOLM-13 (FLT3-ITD)
Excerpt: as §1, §2, §3, §4, §5, §6

[7] = tested on: Kasumi-1 (KIT N822K); experiment: In vitro growth inhibition of Kasumi-1 tumor cells (MTT/CCK8); conditions: Homo sapiens, Kasumi 1; in vitro growth inhibition (or induction of apoptosis), cells cultured 3 to 5 days, MTT (CCK8); read-out: IC50 Kasumi-1 (KIT N822K)
Excerpt: as §1, §2, §3, §4, §5, §6

[8] = tested on: KCL-22 (BCR-ABL); experiment: In vitro growth inhibition of KCL-22 tumor cells (MTT/CCK8); conditions: Homo sapiens, KCL-22; in vitro growth inhibition (or induction of apoptosis), cells cultured 3 to 5 days, MTT (CCK8); read-out: IC50 KCL-22 (BCR-ABL)
Excerpt: as §1, §2, §3, §4, §5, §6

SMILES | IC50 [1] [nM] | IC50 [2] [nM] | IC50 [3] [nM] | IC50 [4] [nM] | IC50 [5] [nM] | IC50 [6] [nM] | IC50 [7] [nM] | IC50 [8] [nM]
COc1cc(Oc2ccnc3cc(OC)c(C(N)=O)cc23)ccc1NC(=O)Nc1cc(C(C)(C)C)on1 [Compound 5, 4-{4-[3-(5-tert-butyl-isoxazol-3-yl)-ureido]-3-methoxy-phenoxy}-7-methoxyquinolin-6-carboxamide] | > 1000 | 156 | 65.3 | 18.8 | 9.76 | 4.26 | 12.9 | 2.15
COc1cc2nccc(Oc3ccc(NC(=O)Nc4cc(C(C)(C)C)on4)c(C)c3)c2cc1C(N)=O [Compound 6, 4-{4-[3-(5-tert-butyl-isoxazol-3-yl)-ureido]-3-methyl-phenoxy}-7-methoxyquinolin-6-carboxamide] | 689 | 45.3 | 10.6 | 15.6 | 2.86 | 20.9 | 26.1 | 17.8
COc1cc2nccc(Oc3ccc(NC(=O)Nc4cc(C(C)(C)C)on4)c(N4CCN(C)CC4)c3)c2cc1C(N)=O [Compound 10, 4-[4-[3-(5-tert-butyl-isoxazol-3-yl)-ureido]-3-(4-methyl-piperazin-1-yl)-phenoxy]-7-methoxyquinolin-6-carboxamide] | > 1000 | > 1000 | > 1000 | > 1000 | > 1000 | > 1000 | 71.9 | > 1000
COc1cc2nccc(Oc3ccc(N(C)C(=O)Nc4cc(C(C)(C)C)on4)cc3)c2cc1C(N)=O [Compound 11, 4-{4-[3-(5-tert-butyl-isoxazol-3-yl)-1-methyl-ureido]-phenoxy}-7-methoxyquinolin-6-carboxamide] | > 1000 | 677 | 270 | 20.4 | 12.1 | 2.41 | 89.8 | 28.1
COc1cc2nccc(Oc3ccc(NC(=O)N(C)c4cc(C(C)(C)C)on4)c(Cl)c3)c2cc1C(N)=O [Compound 12, 4-{4-[3-(5-tert-butyl-isoxazol-3-yl)-3-methyl-ureido]-3-chloro-phenoxy}-7-methoxyquinolin-6-carboxamide] | > 1000 | 791 | 584 | 139 | 103 | 122 | 389 | 114
CNC(=O)c1cc2c(Oc3ccc(NC(=O)Nc4cc(C(C)(C)C)on4)c(Cl)c3)ccnc2cc1OC [Compound 14, 4-{4-[3-(5-tert-butyl-isoxazol-3-yl)-ureido]-3-chloro-phenoxy}-7-methoxyquinolin-6-carboxylic acid methylamide] | 725 | 24.1 | 10.5 | 10.2 | 2.16 | 5.56 | 33.3 | 8.97
COCCNC(=O)c1cc2c(Oc3ccc(NC(=O)Nc4cc(C(C)(C)C)on4)c(Cl)c3)ccnc2cc1OC [Compound 17, 4-{4-[3-(5-tert-butyl-isoxazol-3-yl)-ureido]-3-chloro-phenoxy}-7-methoxyquinolin-6-carboxylic acid (2-methoxy-ethyl)-amide] | 770 | 84.9 | 31.4 | 168 | 3.9 | 7.72 | 71.4 | 23.1
COc1cc2nccc(Oc3ccc(NC(=O)Nc4cc(C(C)(C)C)on4)c(Cl)c3)c2cc1[N+](=O)[O-] [Compound 18, 1-(5-tert-butyl-isoxazol-3-yl)-3-[2-chloro-4-(7-methoxy-6-nitro-quinolin-4-yloxy)-phenyl]-urea] | > 1000 | 638 | 224 | 68 | 6.73 | 410 | 59.6 | 83.6
COc1cc2nccc(Oc3ccc(NC(=O)Nc4cc(C(C)(C)C)on4)c(Cl)c3)c2cc1C#N [Compound 19, 1-(5-tert-butyl-isoxazol-3-yl)-3-[2-chloro-4-(6-cyano-7-methoxy-quinolin-4-yloxy)-phenyl]-urea] | > 1000 | > 1000 | 788 | 172 | 46.8 | 632 | 131 | 150
COc1cc2nccc(Oc3ccc(NC(=O)Nc4cc(C(C)(C)C)on4)c(Cl)c3)c2cc1NC(=O)C1CCCC1 [Compound 23, cyclopentane carboxylic acid (4-{4-[3-(5-tert-butyl-isoxazol-3-yl)-ureido]-3-chloro-phenoxy}-7-methoxyquinolin-6-yl)-amide] | > 1000 | 214 | 227 | 420 | 10.5 | 94.9 | 547 | 436

The next molecules have a lower IC50 [1] than those just listed; values first:

IC50 [1] [nM] | IC50 [2] [nM] | IC50 [3] [nM] | IC50 [4] [nM] | IC50 [5] [nM] | IC50 [6] [nM] | IC50 [7] [nM] | IC50 [8] [nM] | SMILES
252 | 6.61 | 0.86 | 9.74 | 0.84 | 5.41 | 5.46 | 3.19 | COc1cc2nccc(Oc3ccc(NC(=O)Nc4cc(C(C)(C)C)no4)c(Cl)c3)c2cc1C(N)=O [Compound 13, 4-{4-[3-(3-tert-butyl-isoxazol-5-yl)-ureido]-3-chloro-phenoxy}-7-methoxyquinolin-6-carboxamide]
516 | 24.1 | 1.06 | 12.9 | 1.34 | 5.25 | 5.43 | 4.09 | CNC(=O)c1cc2c(Oc3ccc(NC(=O)Nc4cc(C(C)(C)C)no4)c(Cl)c3)ccnc2cc1OC [Compound 15, 4-{4-[3-(3-tert-butyl-isoxazol-5-yl)-ureido]-3-chloro-phenoxy}-7-methoxyquinolin-6-carboxylic acid methylamide]
195 | 13.9 | 1.75 | 8.71 | 1.14 | 2.21 | 22.1 | 5.55 | COc1cc2nccc(Oc3ccc(NC(=O)Nc4cc(C(C)(C)C)on4)c(Cl)c3)c2cc1NC(C)=O [Compound 20]
398 | 37.5 | 17.4 | 157 | 2.8 | 7.07 | 88.9 | 26.6 | CCC(=O)Nc1cc2c(Oc3ccc(NC(=O)Nc4cc(C(C)(C)C)on4)c(Cl)c3)ccnc2cc1OC [Compound 21, N-(4-{4-[3-(5-tert-butyl-isoxazol-3-yl)-ureido]-3-chloro-phenoxy}-7-methoxyquinolin-6-yl)-propionamide]
610 | 18.7 | 40.7 | 27.8 | 8.54 | 16.9 | 91.7 | 61.7 | C=CC(=O)Nc1cc2c(Oc3ccc(NC(=O)Nc4cc(C(C)(C)C)on4)c(Cl)c3)ccnc2cc1OC [Compound 22, N-(4-{4-[3-(5-tert-butyl-isoxazol-3-yl)-ureido]-3-chloro-phenoxy}-7-methoxyquinolin-6-yl)-acrylamide]
